According to ChEMBL document CHEMBL1158913, “Peroxy Aliphatic Esters from the Sponge Plakortis lita” (1990):

Test system: P388
Assay: Cytotoxicity against mouse P388 cells
Assay type: functional
Conditions: read-out: ED50 (the source's name)

SMILES | EC50
C/C=C/C=C/CCCCCCCCCCC[C@]1(OC)C=C[C@H](CC(=O)OC)OO1 | > 10 µg/mL
CCCCCCCCCCCCCCCC[C@@]1(OC)C=C[C@@H](CC(=O)OC)OO1 [CHONDRILLIN] | > 10 µg/mL
